Tested on: CYP3A
Test: Effect of dupilumab on PK of CYP substrate cocktail: midazolam
Details: oral cocktail before (Day 1) and during dupilumab 300 mg weekly (Day 36); n = 13
Protocol: Subcutaneous dupilumab was administered as a 600 mg loading dose on Day 8, followed by a weekly dose of 300 mg from Day 15 to Day 50. PK parameters included Geometric Mean Ratios (GMR) of AUClast (area under the plasma concentration-time curve from time zero to the time of the last quantifiable concentration) and Cmax (maximum observed plasma concentration) measured at Day 1 and Day 36, while efficacy assessments included changes in Eczema Area and Severity Index (EASI) scores (scale 0-72).

Cc1ncc2n1-c1ccc(Cl)cc1C(c1ccccc1F)=NC2 [midazolam, reference compound]
Geometric Mean Ratio (Day 36/Day 1), AUClast: 0.98 | Geometric Mean Ratio (Day 36/Day 1), Cmax: 1.13
